Results on 23 compounds are retold here after ChEMBL document CHEMBL1134132, “Development of potent and selective factor Xa inhibitors” (Bioorg Med Chem Lett, 2001).

One assay has as its target Coagulation factor X (Homo sapiens, UniProt P00742). Kind of assay: Inhibitory activity against Coagulation factor X in human plasma. The format is cell-free.
The target in a further assay is Prothrombin (Homo sapiens, UniProt P00734). Put plainly: Inhibitory activity against thrombin(fIIa) in human plasma. The format is cell-free.
A further assay addresses Plasminogen (Homo sapiens, UniProt P00747). Put plainly: Inhibitory activity against plasmin in human plasma. The assay is classed as cell-free.
The next assay deals with Serine protease 1 (Homo sapiens, UniProt P07477). Put plainly: Inhibitory activity against trypsin in human plasma. The format is cell-free.
Sequence of Serine protease 1 (P07477 whole entry): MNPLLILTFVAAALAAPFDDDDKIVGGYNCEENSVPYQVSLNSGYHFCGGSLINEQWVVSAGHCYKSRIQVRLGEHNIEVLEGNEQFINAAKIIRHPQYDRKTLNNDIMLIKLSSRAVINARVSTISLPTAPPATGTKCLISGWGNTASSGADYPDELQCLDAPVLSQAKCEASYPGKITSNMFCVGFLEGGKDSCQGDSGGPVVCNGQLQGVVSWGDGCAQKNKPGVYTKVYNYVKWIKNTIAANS
Assay [1] concerns the target Urokinase-type plasminogen activator (Homo sapiens, UniProt P00749).
The nature of assay [2]: In vitro anticoagulant effect to double the activated partial thromboplastin time in human plasma. The assay is classed as functional.

Sequence of Plasminogen (P00747 97-580 limits assumed): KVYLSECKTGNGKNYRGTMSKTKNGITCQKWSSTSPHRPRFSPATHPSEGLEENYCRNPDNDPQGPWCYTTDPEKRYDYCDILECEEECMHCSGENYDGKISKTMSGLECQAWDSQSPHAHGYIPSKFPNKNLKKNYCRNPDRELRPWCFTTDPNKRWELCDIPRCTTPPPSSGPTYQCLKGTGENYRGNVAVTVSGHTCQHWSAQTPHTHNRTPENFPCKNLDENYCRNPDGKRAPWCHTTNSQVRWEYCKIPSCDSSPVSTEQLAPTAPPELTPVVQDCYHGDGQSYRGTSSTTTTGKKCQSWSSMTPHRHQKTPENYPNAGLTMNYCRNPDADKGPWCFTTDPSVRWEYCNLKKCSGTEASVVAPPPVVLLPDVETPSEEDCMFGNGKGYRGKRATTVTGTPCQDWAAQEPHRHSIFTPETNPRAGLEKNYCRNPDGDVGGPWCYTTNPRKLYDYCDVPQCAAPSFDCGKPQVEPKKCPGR
Sequence of Plasminogen (P00747 581-810 limits assumed): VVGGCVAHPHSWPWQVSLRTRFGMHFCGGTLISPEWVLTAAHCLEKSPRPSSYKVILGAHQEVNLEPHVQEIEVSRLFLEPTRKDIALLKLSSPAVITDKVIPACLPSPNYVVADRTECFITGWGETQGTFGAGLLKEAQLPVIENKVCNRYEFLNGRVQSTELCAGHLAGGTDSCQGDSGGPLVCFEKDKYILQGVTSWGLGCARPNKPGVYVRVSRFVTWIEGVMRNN
Sequence of Coagulation factor X (P00742 41-179 limits assumed): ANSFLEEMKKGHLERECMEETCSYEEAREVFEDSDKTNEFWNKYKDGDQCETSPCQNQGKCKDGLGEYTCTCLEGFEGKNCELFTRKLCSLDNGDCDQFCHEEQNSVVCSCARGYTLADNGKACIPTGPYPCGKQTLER
Sequence of Coagulation factor X (P00742 235-488 limits assumed): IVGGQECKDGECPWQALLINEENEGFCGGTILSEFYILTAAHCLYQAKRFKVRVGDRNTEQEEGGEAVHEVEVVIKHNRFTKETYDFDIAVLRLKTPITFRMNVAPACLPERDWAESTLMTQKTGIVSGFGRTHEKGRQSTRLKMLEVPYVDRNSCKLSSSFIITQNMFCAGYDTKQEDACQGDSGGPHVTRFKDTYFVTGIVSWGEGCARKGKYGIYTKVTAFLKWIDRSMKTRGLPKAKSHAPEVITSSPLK

Take `CN(C)C(=O)Cc1cc(Br)c(O)c(-c2[nH]c3ccc(C(=N)N)cc3c2Cc2ccccc2)c1`: the inhibitory constant (Ki) at Coagulation factor X worked out at 2 nM; at Prothrombin, 43 nM.
As to `Cc1cc(-c2ccccc2)c(O)c(-c2cc3cc(C(=N)N)ccc3[nH]2)c1`, the Ki was found to be 640 nM at Coagulation factor X; 1500 nM on Plasminogen; 4000 nM at Prothrombin; 1800 nM on Serine protease 1; 110 nM in assay [1].
On the same counts, the results for `Cc1cc(Br)c(O)c(-c2cc3cc(C(=N)N)ccc3[nH]2)c1` are 100 nM, 1200 nM, 360 nM, 640 nM and 110 nM.
For the compound `N=C(N)c1ccc2[nH]c(-c3cc(CC(N)=O)cc(Br)c3O)c(Cc3ccccc3)c2c1`, the Ki at Coagulation factor X amounted to 2 nM; at Prothrombin it was 25 nM.
On the same counts, the results for `COc1c(Br)cc(CCC(=O)O)cc1-c1[nH]c2ccc(C(=N)N)cc2c1Cc1ccccc1` are 45 nM and 2500 nM.
For `N=C(N)c1ccc2[nH]c(-c3cc(-c4nn[nH]n4)cc(Br)c3O)c(Cc3ccccc3)c2c1`, the Ki on Coagulation factor X is 10 nM; at Plasminogen, 4200 nM; on Prothrombin, 350 nM; on Serine protease 1 it was 1300 nM; in assay [1], 550 nM. Besides, in assay [2], the “2x aPPT” value came to 0.7 µM.
Take `N=C(N)c1ccc2[nH]c(-c3cc(CCOP(=O)(O)O)cc(Br)c3O)c(Cc3ccccc3)c2c1`: the inhibition constant Ki on Coagulation factor X amounted to 0.5 nM; at Plasminogen, 1200 nM; at Prothrombin it was 330 nM; on Serine protease 1, 3800 nM; in assay [1] it was 400 nM. In addition, the “2x aPPT” value in assay [2] worked out at 0.42 µM.
With `N=C(N)c1ccc2[nH]c(-c3cc(C(=O)O)cc(Br)c3O)c(Cc3ccccc3)c2c1`, the Ki at Coagulation factor X was determined as 4 nM; on Plasminogen, 1500 nM; at Serine protease 1 it was 440 nM. In assay [2], the “2x aPPT” value was 0.55 µM.
As for `N=C(N)c1ccc2[nH]c(-c3cc(Br)cc(CCC(=O)O)c3)c(Cc3ccccc3)c2c1`, the Ki at Coagulation factor X came out at 1000 nM; at Prothrombin, 12000 nM.
For `N=C(N)c1ccc2[nH]c(-c3cc(Cc4nn[nH]n4)cc(Br)c3O)c(Cc3ccccc3)c2c1`, the inhibition constant (Ki) on Coagulation factor X amounted to 20 nM; at Plasminogen it was 2200 nM; at Prothrombin it was 440 nM; at Serine protease 1 it was 840 nM; in assay [1] it was 350 nM. For the same compound, in assay [2], the “2x aPPT” value worked out at 0.59 µM.
`COC(=O)Cc1cc(Br)c(O)c(-c2[nH]c3ccc(C(=N)N)cc3c2Cc2ccccc2)c1`: the Ki on Coagulation factor X came out at 3 nM; at Prothrombin it was 80 nM.
As to `CC(C)(C(=O)O)c1cc(Br)c(O)c(-c2[nH]c3ccc(C(=N)N)cc3c2Cc2ccccc2)c1`, the inhibition constant Ki at Coagulation factor X was 10 nM; on Plasminogen, 3000 nM; at Prothrombin, 750 nM; on Serine protease 1, 1300 nM; in assay [1] it was 350 nM. Also, the “2x aPPT” value in assay [2] was found to be 0.93 µM.
Regarding `N=C(N)c1ccc2[nH]c(-c3cc(CCC(=O)O)cc(Br)c3O)c(Cc3ccccc3)c2c1`, the inhibitory constant (Ki) at Coagulation factor X is 0.5 nM; on Plasminogen, 1700 nM; on Prothrombin, 120 nM; on Serine protease 1, 600 nM; in assay [1], 280 nM. The “2x aPPT” value in assay [2] stood at 0.52 µM.
For the compound `Cc1cc(Br)c(O)c(-c2[nH]c3ccc(C(=N)N)cc3c2CCc2ccccc2)c1`, the Ki stood at 350 nM at Coagulation factor X; 8800 nM on Plasminogen; 710 nM on Prothrombin; 3400 nM on Serine protease 1; 2300 nM in assay [1].
With `NC(=O)c1ccc2[nH]c(-c3cc(CCC(=O)O)cc(Br)c3O)c(Cc3ccccc3)c2c1`, affinity on Prothrombin was put at a Ki of 78000 nM.
For `N=C(N)c1ccc2[nH]c(-c3cc(CCCC(=O)O)cc(Br)c3O)c(Cc3ccccc3)c2c1`, the Ki at Coagulation factor X came to 0.7 nM; on Plasminogen it was 1500 nM; on Prothrombin, 40 nM; on Serine protease 1, 610 nM; in assay [1], 270 nM. In assay [2], the “2x aPPT” value came out at 0.75 µM.
Turning to `N=C(N)c1ccc2[nH]c(-c3cc(CC(=O)O)cc(Br)c3O)c(Cc3ccccc3)c2c1`, the Ki at Coagulation factor X was determined as 3 nM; on Plasminogen it was 1800 nM; at Prothrombin it was 1000 nM; at Serine protease 1 it was 1200 nM; in assay [1], 430 nM. Moreover, the “2x aPPT” value in assay [2] amounted to 0.38 µM.
Regarding `Cc1cc(Cl)c(O)c(-c2cc3cc(C(=N)N)ccc3[nH]2)c1`, the Ki came to 130 nM at Coagulation factor X; 1000 nM on Plasminogen; 460 nM at Prothrombin; 700 nM on Serine protease 1; 190 nM in assay [1].
`O=C(O)CCc1cc(Br)c(O)c(-c2[nH]c3ccccc3c2Cc2ccccc2)c1`: the Ki at Coagulation factor X is 300000 nM; at Prothrombin, 700000 nM.
As for `Cc1cc(Br)c(O)c(-c2[nH]c3ccc(C(=N)N)cc3c2Cc2ccccc2)c1`, the inhibition constant Ki was 20 nM at Coagulation factor X; 4600 nM on Plasminogen; 260 nM on Prothrombin; 2400 nM at Serine protease 1; 1600 nM in assay [1]. Further, the “2x aPPT” value in assay [2] is 3.9 µM.
As for `Cc1cc(C)c(O)c(-c2cc3cc(C(=N)N)ccc3[nH]2)c1`, the inhibition constant Ki at Coagulation factor X stood at 1200 nM; on Plasminogen it was 10000 nM; at Prothrombin, 6900 nM; on Serine protease 1 it was 5000 nM; in assay [1], 2300 nM.
Consider `Cc1ccc(O)c(-c2cc3cc(C(=N)N)ccc3[nH]2)c1`, for which the Ki on Plasminogen turned out to be 21000 nM; at Prothrombin it was 23000 nM; on Serine protease 1, 8200 nM; in assay [1] it was 12400 nM.
Regarding `Cc1cc(Br)c(O)c(-c2[nH]c3ccc(C(=N)N)cc3c2CCCc2ccccc2)c1`, the inhibitory constant (Ki) was 7600 nM at Coagulation factor X; 32000 nM on Plasminogen; 6600 nM at Prothrombin; 42000 nM at Serine protease 1; 8600 nM in assay [1].

In general, Ki refers to the dissociation constant of the complex between target and ligand, obtained from inhibition or displacement.
